Experimental data published in ChEMBL document CHEMBL3526080, “In vitro inhibition of the bile salt export pump correlates with risk of cholestatic drug-induced liver injury in humans” (Drug Metab Dispos, 2012).

Experiments:
Bile salt export pump [1] = biological target: Bile salt export pump (Rattus norvegicus, UniProt O70127); experiment: Inhibition of Sprague-Dawley rat Bsep expressed in plasma membrane vesicles of Sf21 cells assessed as inhibition of ATP-dependent [3H]taurocholate uptake; type: cell membranes
Sequence of Bile salt export pump (Rattus norvegicus, UniProt O70127) (O70127 whole entry): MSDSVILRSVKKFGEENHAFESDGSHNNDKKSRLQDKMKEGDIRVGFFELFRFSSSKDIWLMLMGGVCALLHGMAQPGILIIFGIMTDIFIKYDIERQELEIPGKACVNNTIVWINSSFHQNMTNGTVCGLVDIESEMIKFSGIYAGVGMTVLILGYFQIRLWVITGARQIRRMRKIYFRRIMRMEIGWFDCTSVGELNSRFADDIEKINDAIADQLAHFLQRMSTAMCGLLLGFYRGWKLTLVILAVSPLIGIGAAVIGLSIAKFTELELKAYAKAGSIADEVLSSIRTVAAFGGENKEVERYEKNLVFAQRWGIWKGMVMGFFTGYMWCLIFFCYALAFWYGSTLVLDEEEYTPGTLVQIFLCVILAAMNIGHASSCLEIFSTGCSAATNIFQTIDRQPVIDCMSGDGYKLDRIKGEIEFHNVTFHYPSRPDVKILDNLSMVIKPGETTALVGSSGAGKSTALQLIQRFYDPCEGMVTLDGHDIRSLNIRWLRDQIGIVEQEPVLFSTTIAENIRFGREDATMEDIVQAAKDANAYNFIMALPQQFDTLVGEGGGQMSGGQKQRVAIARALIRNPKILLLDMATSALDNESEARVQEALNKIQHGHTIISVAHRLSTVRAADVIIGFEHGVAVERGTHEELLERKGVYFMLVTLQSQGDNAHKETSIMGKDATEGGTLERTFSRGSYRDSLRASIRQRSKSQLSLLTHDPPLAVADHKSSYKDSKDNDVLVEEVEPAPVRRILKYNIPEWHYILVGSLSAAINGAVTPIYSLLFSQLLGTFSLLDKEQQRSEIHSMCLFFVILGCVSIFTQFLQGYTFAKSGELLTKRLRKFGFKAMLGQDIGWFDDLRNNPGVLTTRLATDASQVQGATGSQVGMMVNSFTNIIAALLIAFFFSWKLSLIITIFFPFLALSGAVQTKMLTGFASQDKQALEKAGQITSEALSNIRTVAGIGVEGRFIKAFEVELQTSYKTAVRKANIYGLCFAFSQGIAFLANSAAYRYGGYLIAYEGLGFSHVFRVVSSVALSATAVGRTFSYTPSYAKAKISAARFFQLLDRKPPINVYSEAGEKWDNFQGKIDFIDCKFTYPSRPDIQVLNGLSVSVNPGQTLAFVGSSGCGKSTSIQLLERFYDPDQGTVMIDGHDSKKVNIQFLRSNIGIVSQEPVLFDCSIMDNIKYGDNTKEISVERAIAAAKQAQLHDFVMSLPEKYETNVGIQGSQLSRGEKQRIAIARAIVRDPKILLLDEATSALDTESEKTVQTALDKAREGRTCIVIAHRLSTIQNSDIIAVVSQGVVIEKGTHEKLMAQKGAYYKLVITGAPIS

Bile salt export pump [2] = biological target: Bile salt export pump (Homo sapiens, UniProt O95342); experiment: Inhibition of human BSEP expressed in plasma membrane vesicles of Sf21 cells assessed as inhibition of ATP-dependent [3H]taurocholate uptake; type: cell membranes
Sequence of Bile salt export pump (Homo sapiens, UniProt O95342) (O95342 whole entry): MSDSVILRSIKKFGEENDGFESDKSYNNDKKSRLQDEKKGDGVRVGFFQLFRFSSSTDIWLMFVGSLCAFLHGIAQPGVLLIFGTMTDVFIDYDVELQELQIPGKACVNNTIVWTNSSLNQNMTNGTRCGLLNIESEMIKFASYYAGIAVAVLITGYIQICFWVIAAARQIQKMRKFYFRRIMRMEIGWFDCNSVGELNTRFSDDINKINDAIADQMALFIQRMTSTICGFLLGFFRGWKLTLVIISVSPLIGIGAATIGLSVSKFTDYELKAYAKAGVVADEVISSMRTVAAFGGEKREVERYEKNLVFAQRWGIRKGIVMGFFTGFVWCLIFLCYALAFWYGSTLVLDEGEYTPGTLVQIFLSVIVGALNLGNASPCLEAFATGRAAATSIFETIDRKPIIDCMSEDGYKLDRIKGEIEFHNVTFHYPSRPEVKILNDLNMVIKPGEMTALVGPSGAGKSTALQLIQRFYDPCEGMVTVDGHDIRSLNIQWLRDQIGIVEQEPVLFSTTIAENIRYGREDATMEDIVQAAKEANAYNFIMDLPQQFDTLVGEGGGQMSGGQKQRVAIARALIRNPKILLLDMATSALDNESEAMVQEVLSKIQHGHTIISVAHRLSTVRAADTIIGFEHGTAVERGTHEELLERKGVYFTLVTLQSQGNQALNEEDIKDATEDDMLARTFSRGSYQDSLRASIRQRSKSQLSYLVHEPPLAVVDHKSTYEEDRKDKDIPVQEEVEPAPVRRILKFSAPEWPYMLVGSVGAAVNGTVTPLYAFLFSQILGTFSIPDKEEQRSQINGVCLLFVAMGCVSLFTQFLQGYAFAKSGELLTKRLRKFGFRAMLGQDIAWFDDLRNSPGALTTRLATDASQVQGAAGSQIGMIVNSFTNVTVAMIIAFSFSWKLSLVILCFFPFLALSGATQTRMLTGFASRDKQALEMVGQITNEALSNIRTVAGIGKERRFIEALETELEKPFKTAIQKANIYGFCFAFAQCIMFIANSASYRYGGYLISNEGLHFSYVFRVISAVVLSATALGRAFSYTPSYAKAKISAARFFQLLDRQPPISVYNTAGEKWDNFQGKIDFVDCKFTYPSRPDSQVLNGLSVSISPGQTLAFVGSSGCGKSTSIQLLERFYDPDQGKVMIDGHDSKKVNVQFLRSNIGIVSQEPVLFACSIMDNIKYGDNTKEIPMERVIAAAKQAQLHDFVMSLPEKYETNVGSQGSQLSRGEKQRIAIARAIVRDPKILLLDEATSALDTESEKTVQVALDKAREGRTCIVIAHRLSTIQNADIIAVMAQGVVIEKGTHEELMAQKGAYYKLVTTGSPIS

Structure (SMILES) | IC50 (Bile salt export pump [1]) [µM] | IC50 (Bile salt export pump [2]) [µM]
[H]/N=C(/N)N[C@H]1[C@H](O)[C@@H](O)[C@H](O[C@@H]2O[C@@H](C)[C@](O)(C=O)[C@H]2O[C@@H]2O[C@@H](CO)[C@H](O)[C@@H](O)[C@@H]2NC)[C@@H](N/C(N)=N\[H])[C@@H]1O [STREPTOMYCIN] | > 1000 | > 1000
CCN1CCCC1CNC(=O)c1cc(S(N)(=O)=O)ccc1OC (stereo unspecified) [SULPIRIDE] | > 1000 | > 1000
Nc1c2c(nc3ccccc13)CCCC2 [TACRINE] | > 1000 | > 1000
CCCCNC(=O)NS(=O)(=O)c1ccc(C)cc1 [TOLBUTAMIDE] | > 1000 | > 1000
Cc1ccc(C(=O)c2cc(O)c(O)c([N+](=O)[O-])c2)cc1 [TOLCAPONE] | 47.2 | 120
Cc1c(C)c2c(c(C)c1O)CCC(C)(COc1ccc(CC3SC(=O)NC3=O)cc1)O2 (stereo unspecified) [TROGLITAZONE] | 10.6 | 2.7
CCCC(CCC)C(=O)O [VALPROIC ACID] | > 1000 | > 1000
CC(c1cc2ccccc2s1)N(O)C(N)=O (stereo unspecified) [ZILEUTON] | 564 | > 1000
